{
  "source": "patent US20170307610A1",
  "about": "“COMPOUNDS THAT BIND DYSTROGLYCAN AND USES THEREOF” (OREGON HEALTH & SCIENCE UNIVERSITY, priority 2014, published 2017)",
  "key": {"E3D1 MECs": {"test_system": "E3D1 MECs", "assay": "Steady-state laminin internalization, flow cytometry", "assay_type": "cell-based, mouse", "settings": "steady-state, continuous Rhod-Ln", "method": "Endocytic internalization of laminin was confirmed by multiple methods. Laminin was labeled with the pH-sensitive fluorescent label CypHer-5 (CyPher-Ln) to exclusively image internalized laminin in attached, living cells. The fluorophore CypHer-5 is non fluorescent at pH 7.4 and maximally fluorescent at pH 5.5, permitting fluorescence detection of laminin within intracellular acidic vesicles (pH 4.8-6.0). Following overnight incubation of MECs with CypHer-Ln, live cell imaging detected bright fluorescent vesicles moving rapidly within the cytoplasm (FIG. 3A). Intracellular laminin within the cytoplasm was also independently observed via removal of surface bound laminin followed by confocal imaging. MECs were exposed to 10 μg/ml Rhod-Ln for 18 hrs, trypsinized, washed with PBS/EDTA to remove surface-bound laminin, allowed to re-attach, and stained with the membrane marker FITC-concanavalin A (conA). […] This method of cell treatment permitted a quantitative, flow cytometry-based assay of laminin internalization. In this assay, cells incubated with Rhod-Ln were trypsinized, washed (as in FIG. 3B), and the remaining internal Rhod-Ln fluorescence quantified by flow cytometry. Using this assay, laminin internalization was confirmed in diverse cell types including in primary mammary epithelial cultures, mammary epithelial cell lines (E3D1, MEpG), […] fibroblasts (NIH 3T3 cells), primary astrocytes, and human cancer cell lines (breast and glioma).\nTo explore the dynamics of laminin internalization, steady-state time course experiments (measuring internalization in the continuous presence of labeled laminin) and pulsed time course experiments were performed. In pulsed time course experiments, the cells were exposed to exogenous Rhod-Ln at 4° C. to prevent internalization, excess unbound Rhod-Ln was washed away, and then cells were returned to 37° C. to allow synchronized internalization and trafficking to proceed. […] Following pulsed and synchronized laminin exposure, Rhod-Ln was again observed to internalize within 1 hour, but reached a maximum at 8 hours, after which the levels of internal laminin declined (FIG. 4A). After 24 hours, internal Rhod-Ln levels declined to ˜37% of the maxima, indicating degradation (MFI: 315±3.5 to 119±11.5). To determine if laminin was degraded using classical degradation pathways, pulsed time course experiments in the presence of leupeptin (lysosome inhibitor) or […] (proteasome inhibitor) were performed.\nLaminin internalization could be mediated by either receptor-dependent or receptor independent mechanisms (e.g. pinocytosis). Steady-state laminin internalization was measured using flow cytometry in the presence of potential inhibitors and compared to internalization of 500S FITC-dextran, a molecule of similar molecular size to laminin known to be endocytosed by receptor-independent mechanisms. The specific inhibitor of dynamin, dynasore (Macia E et al, Dev Cell, 839-850 (2006); incorporated by reference herein), inhibited internalization of laminin by >75% (FIG. 6A). Under hypertonic sucrose, a condition known to inhibit receptor-mediated endocytosis (Heuser J E and Anderson R G, J Cell Biol 108, 389-400 (1989); incorporated by reference herein) laminin internalization was reduced by 65% (FIG. 6A). Addition of heparin, a molecule known to bind the laminin LG4-5 domain (Harrison D et al, J Biol Chem 282, 11573-11581 (2007); incorporated by reference herein), decreased laminin internalization by 69% relative to controls (FIG. 6A). […] Specifically, under steady state, laminin internalization was nearly linear throughout the 24 hour time course, whereas dextran internalization plateaued after 16 hrs.\nFlow Cytometry—Cells were plated in 12 well plates at 200,000 cells/well. The following day, media was changed to serum-free media with or without 10 μg/ml rhodamine laminin or 40 μg/ml FITC-dextran (500S-Sigma-Aldrich Corp., St. Louis, Mo., USA). […]"}, "LN18 human glioma cells": {"test_system": "LN18 human glioma cells", "assay": "Laminin internalization in vector or LARGE expressing cells, flow cytometry", "assay_type": "cell-based", "from_the_text": "(§1) Loss of DG's laminin binding function is a cause of some congenital muscular dystrophies (CMDs) and is a frequent defect in cancers including those of the breast, prostate, colon, and brain (Akhavan A et al, 2012 supra; Beltran-Valero de Bernabe et al, 2009 infra). This loss of function arises from altered glycosylation of DG and can be restored in many carcinoma and glioblastoma cells by expression of the enzyme LARGE, a glycosyltransferase that confers laminin-binding properties to DG (Akhavan et al., 2012; Beltran-Valero de Bernabe D et al, J Biol Chem 284, 11279-11284 (2009); incorporated by reference herein. Based on these facts in light of the disclosure herein, it was hypothesized that laminin internalization would be severely disrupted in cancer cells lacking DG activity and enhanced by the restoration of such activity. This hypothesis was tested in MDA-MB-231 human breast cancer cells and LN18 human glioma cells, both of which lack DG glycosylation and function. […] Expression of LARGE restored normal glycosylation of DG as determined by western blot analysis with IIH6 antibody (FIG. 10A, LARGE) and functional interaction of DG in the laminin assembly assay (FIG. 10B, LARGE). These cells were subsequently assayed for laminin internalization by flow cytometry.\n(§2) Flow Cytometry—Cells were plated in 12 well plates at 200,000 cells/well. The following day, media was changed to serum-free media with or without 10 μg/ml rhodamine laminin or 40 μg/ml FITC-dextran (500S-Sigma-Aldrich Corp., St. Louis, Mo., USA). Unless otherwise indicated, cells were incubated 18-24 hrs, washed once with PBS, and cells trypsinized. Cells were washed in 5 ml cold PBS/1 mM EDTA, pelleted, and resuspended in 1 ml PBS/1 mM EDTA. Using a BD FACScan flow cytometer (BD Biosciences, San Jose, Calif., USA), 10,000 cells/well were counted, background fluorescence from the cell counts with no added laminin subtracted and the mean fluorescence intensity values reported. Graphed data are compiled from duplicate wells from each experiment with a minimum of three separate experiments, unless indicated otherwise."}, "[1]": {"test_system": "MDA-MB-231 human breast cancer cells", "assay": "Laminin internalization in vector or LARGE expressing cells, flow cytometry", "assay_type": "cell-based", "from_the_text": "as §1, §2"}},
  "data": [
    {"substance": "Rhod-Ln: laminin-111 labeled with NHS-rhodamine; dystroglycan binding reagent", "values": [
      {"measurement": "time at which internalized laminin was measurable", "setting": "E3D1 MECs", "result": "≤ 1", "unit": "h"},
      {"measurement": "time to plateau of laminin internalization", "setting": "E3D1 MECs", "result": "> 30", "unit": "h"},
      {"measurement": "increase in MFI of internalized laminin, LARGE vs vector", "setting": "LN18 human glioma cells; LN18", "result": 10, "unit": "fold"},
      {"measurement": "MFI of internalized laminin, LARGE expressing cells", "setting": "LN18 human glioma cells; LN18 LARGE, n=3", "result": "1.49±0.049"},
      {"measurement": "MFI of internalized laminin, vector cells", "setting": "LN18 human glioma cells; LN18 empty vector, n=3", "result": "0.145±0.155"},
      {"measurement": "increase in MFI of internalized laminin, LARGE vs vector", "setting": "[1]; MDA-MB-231", "result": 68, "unit": "fold"},
      {"measurement": "MFI of internalized laminin, LARGE expressing cells", "setting": "[1]; MDA-MB-231 LARGE, Rhod-Ln 18 hours, n=3", "result": "6.82 +/−0.241"},
      {"measurement": "MFI of internalized laminin, vector cells", "setting": "[1]; MDA-MB-231 empty vector, Rhod-Ln 18 hours, n=3", "result": "0.1+/−0.014"}
    ]}
  ]
}
